Series [1] in a line: In vitro iontophoretic delivery of MTX through hairless (nude) rat skin, Franz diffusion cells. The class given is in vitro ADME. The method, then: The delivery of MTX under 30 mins of iontophoresis (0.4 mA/cm^2) was studied at buffer strengths 0.05-0.5 M and drug concentrations 10-20 mg/ml. The effect of current density and time of application on the delivery of MTX is studied by optimizing the full-factorial design. The current density (X1) and time of application (X2) are the independent factors chosen for the factorial design with 4 and 5 levels, respectively in the range of 0.05-0.5 mA (X1) and 10-120 mins (X2).
In vitro iontophoretic experiments (n≧3) were performed using freshly excised hairless rat skin mounted on vertical Franz diffusion cells with stratum corneum facing towards the donor chamber. The donor compartment contained 15 mg/ml of MTX in phosphate buffer of pH 7.4 (0.25 M) and the receptor compartment contained phosphate buffer of pH 7.4 (0.25 M) with 75 mM NaCl.
A silver-silver chloride electrode (cathode) was placed in the donor chamber and silver wire (anode) was placed in the receptor compartment. Samples were taken at periodic intervals and were analyzed by HPLC, using YMC RP 18 column. Mobile Phase was composed of monobasic sodium phosphate (10%) and Tris HCl buffer (90%). Flow rate was 1.5 ml/min and detection wavelength was 303 nm.

The conditions of series [2]: cited from earlier work.

Molecules are shown by their SMILES.

For the compound `CN(Cc1cnc2nc(N)nc(N)c2n1)c1ccc(C(=O)N[C@@H](CCC(=O)O)C(=O)O)cc1` [MTX, Methotrexate], in series [1] (0.25 M buffer strength, 30 mins iontophoresis 0.4 mA/cm^2), the “delivery at 15 versus 20 mg/ml” value is “not statistically different”. In series [1] (0.25 M buffer strength, 30 mins iontophoresis 0.4 mA/cm^2, FIG. 2), the “amount of drug delivered, effect of MTX concentration 10 to 15 mg/ml” value is recorded as “increased”. Further, in series [1] (10 min iontophoresis), the “cumulative amount delivered, increase in current density from 0.05 to 0.5 mA” value was “did not show a statistically significant increase”. In addition, in series [1] (30 mins iontophoresis 0.4 mA/cm^2, buffer strengths 0.05-0.5 M, FIG. 1), the “cumulative amount of MTX delivered across hairless rat skin, effect of buffer ionic strength” value is listed as “increased with decrease in ionic strength of the buffer”. The “delivery, increase in time of application from 10-120 mins” value in series [1] (at 0.05 mA) is “did not show any enhanced delivery”. In addition, the maximal flux result in series [1] (buffer strength 0.25 M, drug concentration 15 mg/ml, across hairless rat skin) was “about 0.6 μg/cm^2-hr”. Further, the “cumulative amount of drug delivered versus model prediction” value in series [1] (current density 0.4 mA/cm^2, ITP for 30 mins) is “in between the lower and upper 95% confidence level”. Also, the “cumulative amount of MTX delivered, effect of increase in current density and time of application” value in series [1] (factorial design, 0.05-0.5 mA, 10-120 mins, 15 mg/ml MTX, phosphate buffer pH 7.4 0.25 M, FIG. 3, 4) is on record as “also increased”. In addition, in series [2], the “charge at physiological pH” value is on record as “negatively charged”.

The record behind these values is patent publication US20070248630A1, “PHARMACEUTICAL FORMULATIONS FOR IONTOPHORETIC METHOTREXATE DELIVERY” (priority 2006, published 2007).
